For one data set, the system named is adult rats. Kind of data set: Tm-induced acute photoreceptor loss, intravitreal co-injection. In kind it is in vivo. To be noted: Tm at 3 μg/ml. The protocol: […]. […] Rhodopsin mRNA may be an IRE1α RNase substrate since Rhodopsin RNA is cleaved by IRE1α*, but not RNase-dead IRE1α* (N906A), at a primary G/C site with flanking sequence similarity to scission sites in XBP1.
Next, to test whether KIRA6 also provides functional protection, we established a dose-response curve to determine threshold [Tm] that cause functional retinal damage as measured by scotopic electroretinograms (ERG). Based on the results, we injected Tm at 3 μg/ml.
Mice were anaesthetized with 1.5-3% isoflurane, eyes were dilated with 2.5% phenylephrine hydrochloride and 1% tropicamide, and corneas were kept moist with regular application of 2.5% methylcellulose. Eyes were examined using a Micron III retinal imaging system (Phoenix Research Labs). […]
Rats dark-adapted overnight were anesthetized with ketamine (100 mg/ml) and xylazine (20 mg/ml) via intraperitoneal injection in dim red light. […] Briefly, […] flashes of white light of increasing intensities were used to induce bilateral, full-field ERGs; responses were recorded using contact lens electrodes with a UTAS-E 3000 Visual Electrodiagnostic System (LKC Technologies, Inc.). […] Briefly, 10-μsec flashes of white light of increasing intensities were used to induce bilateral, full-field ERGs; responses were recorded using contact lens electrodes with a UTAS-E 3000 Visual Electrodiagnostic System (LKC Technologies, Inc.).

The target of data set [1] is T1, IRE1α* (Homo sapiens, UniProt O75460).
T1 construct: human IRE1α (residues 469-977, IRE1α*); made in house; host or cells: SF9 insect cells, Bac-to-Bac baculovirus
T1 sequence (O75460 469-977): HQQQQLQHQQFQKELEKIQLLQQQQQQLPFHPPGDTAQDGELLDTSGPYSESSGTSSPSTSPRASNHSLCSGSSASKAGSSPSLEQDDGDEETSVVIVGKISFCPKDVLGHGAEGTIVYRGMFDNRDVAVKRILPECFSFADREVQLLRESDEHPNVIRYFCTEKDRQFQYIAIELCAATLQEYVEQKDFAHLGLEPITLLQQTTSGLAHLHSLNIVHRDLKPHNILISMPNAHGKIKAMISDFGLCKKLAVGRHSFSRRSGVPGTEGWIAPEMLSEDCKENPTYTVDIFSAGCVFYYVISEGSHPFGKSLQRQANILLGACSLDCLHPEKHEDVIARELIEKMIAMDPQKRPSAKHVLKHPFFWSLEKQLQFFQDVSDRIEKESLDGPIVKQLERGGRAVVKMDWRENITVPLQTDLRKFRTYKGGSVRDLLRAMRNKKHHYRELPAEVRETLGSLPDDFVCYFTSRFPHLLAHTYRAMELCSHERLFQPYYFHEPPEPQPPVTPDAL
Kind of data set: XBP1 RNA minisubstrate (FRET-quenched) RNase assay. To be noted: IRE1α*. In kind it is biochemical.

Data set [2] in a line: Pharmacokinetic profile in BALB/c mice. In kind it is in vivo, mouse. Particulars: 10 mg/kg.
In data set [3] the test system is Ins2^+/Akita (Akita) mouse. Kind of data set: Akita mouse chronic efficacy study. In kind it is in vivo. To be noted: 49 days from initial injection. The protocol:
FIGS. 17A-17C. […] (FIGS. 17A-17B) Random insulin and C-peptide levels in Ins2^+/Akita mice on Day 58 (21 d post injections). KIRA6 (5 mg/kg)(n=5) and vehicle (n=4). (FIG. 17C) Total β-cell area as a percentage of total pancreas area on Day 55 (18 d post injections). KIRA6 (5 mg/kg)(n=6) and vehicle (n=3).
Based on low micromolar KIRA6 needed for protection in cell culture, we chose i.p. dosing regimens of 5 or 10 mg/kg b.i.d for Akita chronic efficacy studies to provide similar exposure. We injected KIRA6 into randomized 3-week old male Akita mice when their random blood glucose levels were at prediabetic range (˜200 mg/dl).
[…] and C57BL/6 Ins2^WT/C96Y (Ins2^+/Akita) mice were obtained from Jackson Laboratories. Glucose levels were measured from tail snips obtained between 9:00 and 11:00 AM using a glucometer (Nova Statstrip Xpress, Data Sciences International). Serum insulin and C-peptide levels were measured using mouse ultra-sensitive insulin and C-peptide ELISA (Mercodia). […]
Mice were fasted for 17 h before i.p. injection with glucose (2 g/kg of body weight). Blood was collected from the tail, and glucose levels were determined by using a glucometer (Nova Statstrip Xpress, Data Sciences International).
Pancreatic sectioning, staining and analysis were done as described previously (Chintinne et al., 2010). […] A minimum of 2% of the total organ volume was stained and measured. […]

A short description of data set [4]: Compound toxicity / proliferative blocks in cells. In kind it is cell-based.
The target in data set [5] is T1, IRE1α*. Kind of data set: IRE1α* kinase assay (96-well dot blot, 32γ-ATP, STK peptide substrate 2). In kind it is biochemical. The protocol:
FIGS. 16A-16C. Divergent modulation of IRE1α RNase activity using distinct classes of kinase inhibitors. (FIG. 16A) KIRA6 inhibition of IRE1α* kinase activity. IC50 values determined by fitting percent kinase activity (n=3); Urea PAGE of competition cleavage by IRE1α* of XBP1 RNA mini-substrate (FIG. 16B) and α^32P-labeled Ins2 RNA (FIG. 16C), under indicated [KIRA6]; IC50s determined by fitting in-gel fluorescence intensities (XBP1) and phosphorimager (Ins2).
KIRAs are tested for ability to inhibit IRE1α* kinase and RNase activities in vitro. The XBP1 minisubstrate assay shown in FIGS. 1B-1C, is amenable to 96- or 384-well format, and is used to determine RNase IC50s. In parallel, kinase IC50s for all KIRAs are determined in a 96-well dot blot assay with 32γ-ATP and STK peptide substrate 2 as substrates. Time-dependence of inhibition is determined for all electrophile-containing KIRAs. RNase and kinase assays have been used to profile the KIRAs in FIG. 13, showing a strong correlation between kinase and RNase IC50s. […] Thus, the structure-based design strategy uses these two kinases as counter targets (described below).

Experimental findings from patent US20170165259A1, “COMBINED MODULATION OF IRE1” (THE REGENTS OF THE UNIVERSITY OF CALIFORNIA, priority 2014, published 2017) are described below.

The IC50 is the point on the concentration scale where inhibition reaches its midpoint. As a reminder, the Cmax is the peak of the concentration-time curve. As a reminder, the half-life is how long it takes for the measured level to halve. Read a low half-life as fast loss.

As for `CC(C)(C)c1nc(-c2ccc(NC(=O)Nc3cccc(C(F)(F)F)c3)c3ccccc23)c2c(N)nccn12` [KIRA6, 1-(4-(8-amino-3-tert-butylimidazo[1,5-a]pyrazin-1-yl)naphthalen-1-yl)-3-(3-(trifluoromethyl)phenyl)urea], the “scotopic ERG responsiveness” value with adult rats is “substantially protects against loss of ERG responsiveness, significantly preserving both a- and b-wave amplitudes”. The IC50 against IRE1α* [1] stood at 210 nM. In data set [2] (i.p.), this molecule registered a clearance of 22.4 mL/min/kg. In data set [2] (mouse, ip, plasma, read-out: AUC 0-24 h), the AUC(0-t) amounted to 14.3 µM·h. In data set [2] (mouse, plasma, ip), this molecule gave a Cmax of 3.3 µM and a half-life of 234 min. Moreover, the concentration at 4 h in data set [2] (mouse, plasma, ip, read-out: plasma level at 4 hr) came out at 1200 nM. Further, the concentration at 8 h in data set [2] (mouse, plasma, ip, read-out: plasma level at 8 hr) amounted to 330 nM. Also, in data set [3], the “body weight vs vehicles” value is recorded as “no significant differences in weight from vehicles” and the general health entry is on record as “appeared healthy even after 49 days from initial injection”. The toxicity in cells result in data set [4] is listed as “negligible toxicity up to 10 μM”. The same molecule yielded an IC50 at IRE1α* [5] of 620 nM.
